Measured values reported in paper PMC6271077, “Synthesis, Anticancer and Antibacterial Activity of Salinomycin N-Benzyl Amides” (Molecules, 2014).
≈ marks a conversion by molar mass, not a printed value. Read-outs that look alike come from different tables or passages of the source.

Legend:
[1] = system: S. aureus ATCC 6538; assay: Disc-diffusion (GIZ); assay type: cell-based; conditions: 18 h, 35 °C, un: unmeasurable
From the text: (§1) Microorganisms used in this study were as follows: Gram-positive cocci: S. aureus NCTC 4163, S. aureus ATCC 25923, S. aureus ATCC 6538, S. aureus ATCC 29213, S. epidermidis ATCC 12228, S. epidermidis ATCC 35984, Gram-negative rods: E. coli ATCC 10538, E. coli ATCC 25922, E. coli NCTC 8196, P. vulgaris NCTC 4635, P. aeruginosa ATCC 15442, P. aeruginosa NCTC 6749, P. aeruginosa ATCC 27863, B. bronchiseptica ATCC 4617 and yeasts: C. albicans ATCC 10231, C. albicans ATCC 90028, C. parapsilosis ATCC 22019. The other microorganisms used were obtained from the collection of the Department of Pharmaceutical Microbiology, Medical University of Warsaw, Poland.
(§2) Antibacterial activity was examined by the disc-diffusion method under standard conditions using Mueller-Hinton II agar medium (Becton Dickinson, Heidelberg, Germany) according to CLSI (previously NCCLS) guidelines. Antifungal activities were assessed using Muellere Hinton agar + 2% glucose and 0.5 mg/mL Methylene Blue Dye Medium.
(§3) Sterile filter paper discs (9 mm diameter, Whatman No. 3 chromatography paper) were dripped with tested compound solutions (in EtOH) to load […] of a given compound per disc. Dry discs were placed on the surface of appropriate agar medium. The results (diameter of the growth inhibition zone, GIZ) were read after 18 h of incubation at 35 °C.

[2] = system: S. epidermidis ATCC 35984; assay: Disc-diffusion (GIZ); assay type: cell-based; conditions: 18 h, 35 °C, un: unmeasurable
From the text: as §1, §2, §3

[3] = system: S. aureus ATCC 4163; assay: Disc-diffusion (GIZ); assay type: cell-based; conditions: 18 h, 35 °C, un: unmeasurable
From the text: as §1, §2, §3

[4] = system: S. aureus ATCC 25923; assay: Disc-diffusion (GIZ); assay type: cell-based; conditions: 18 h, 35 °C, un: unmeasurable
From the text: as §1, §2, §3

[5] = system: S. aureus ATCC 29213; assay: Disc-diffusion (GIZ); assay type: cell-based; conditions: 18 h, 35 °C, un: unmeasurable
From the text: as §1, §2, §3

[6] = system: S. epidermidis ATCC 12228; assay: Disc-diffusion (GIZ); assay type: cell-based; conditions: 18 h, 35 °C, un: unmeasurable
From the text: as §1, §2, §3

[7] = system: MRSA 514/11; assay: MIC microdilution, hospital MRSA; assay type: cell-based; conditions: Staphylococcus aureus
[8] = system: MRSA 456/11; assay: MIC microdilution, hospital MRSA; assay type: cell-based; conditions: Staphylococcus aureus
[9] = system: MRSA 586/12; assay: MIC microdilution, hospital MRSA; assay type: cell-based; conditions: Staphylococcus aureus
[10] = system: S. aureus ATCC 29213; assay: MIC microdilution; assay type: cell-based; conditions: Staphylococcus aureus
[11] = system: S. aureus ATCC 4163; assay: MIC microdilution; assay type: cell-based; conditions: Staphylococcus aureus
[12] = system: LoVo; assay: Antiproliferative SRB assay, LoVo; assay type: cell-based, human; conditions: for IC50: Homo sapiens, LoVo, 72 h, read-out: IC50 LoVo; for SI LoVo: SI = IC50 BALB/3T3 / IC50 LoVo
[13] = system: M. tuberculosis standard H37Rv strain; assay: Tuberculostatic activity, test-tube dilution; assay type: cell-based; conditions: Mycobacterium tuberculosis, read-out: MIC M. tuberculosis Standard H37Rv Strain
[14] = system: MRSA 585/12; assay: MIC microdilution, hospital MRSA; assay type: cell-based; conditions: Staphylococcus aureus
[15] = hospital MRSA strain 514/11, read-out: MIC
[16] = hospital MRSA strain 456/11, read-out: MIC
[17] = hospital MRSA strain 586/12, read-out: MIC
[18] = ATCC29213, S. aureus ATCC 29213, 18 h, 35 °C, read-out: MIC
[19] = ATCC4163, S. aureus ATCC 4163, 18 h, 35 °C, read-out: MIC
[20] = hospital MRSA strain 585/12, read-out: MIC

CC[C@H](C(=O)NCc1ccc(F)cc1)C1CC[C@H](C)C([C@@H](C)[C@H](O)[C@H](C)C(=O)[C@H](CC)C2O[C@]3(C=C[C@@H](O)C4(CC[C@@](C)(C5CC[C@](O)(CC)[C@H](C)O5)O4)O3)[C@H](C)C[C@@H]2C)O1 (stereo partly drawn) [F-p]
GIZ [1]: 19 mm | GIZ [2]: 18 mm | GIZ [3]: 18 mm | GIZ [4]: 19 mm | GIZ [5]: 20 mm | GIZ [6]: 20 mm | MIC [7, 15]: 32 µg/mL (≈ 37.3 µM) | MIC [8, 16]: 16 µg/mL (≈ 18.6 µM) | MIC [9, 17]: 64 µg/mL (≈ 74.6 µM) | MIC [10, 18]: 32 µg/mL (≈ 37.3 µM) | MIC [11, 19]: 32 µg/mL (≈ 37.3 µM) | IC50 ([12]; SRB, mean ± SD): 6.18 ± 0.91 µM | SI LoVo [12]: 1.40 | MIC [13]: 50 µg/mL (≈ 58.3 µM) | MIC [14, 20]: 32 µg/mL (≈ 37.3 µM)

CC[C@H](C(=O)NCc1ccc([N+](=O)[O-])cc1)C1CC[C@H](C)C([C@@H](C)[C@H](O)[C@H](C)C(=O)[C@H](CC)C2O[C@]3(C=C[C@@H](O)C4(CC[C@@](C)(C5CC[C@](O)(CC)[C@H](C)O5)O4)O3)[C@H](C)C[C@@H]2C)O1 (stereo partly drawn) [NO2-p]
GIZ [1]: un | GIZ [2]: un | GIZ [3]: un | GIZ [4]: un | GIZ [5]: un | GIZ [6]: un | MIC [7, 15]: 128 µg/mL (≈ 145 µM) | MIC [8, 16]: 128 µg/mL (≈ 145 µM) | MIC [9, 17]: 256 µg/mL (≈ 289 µM) | MIC [10, 18]: 128 µg/mL (≈ 145 µM) | MIC [11, 19]: 128 µg/mL (≈ 145 µM) | IC50 ([12]; SRB, mean ± SD): 13.3 ± 1.94 µM | SI LoVo [12]: 0.52 | MIC [13]: 50 µg/mL (≈ 56.5 µM) | MIC [14, 20]: 256 µg/mL (≈ 289 µM)

CC[C@@H](C(=O)[C@@H](C)[C@@H](O)[C@H](C)[C@@H]1O[C@@H]([C@@H](CC)C(=O)O)CC[C@@H]1C)[C@H]1O[C@]2(C=C[C@@H](O)[C@]3(CC[C@@](C)([C@H]4CC[C@](O)(CC)[C@H](C)O4)O3)O2)[C@H](C)C[C@@H]1C [SAL, Salinomycin]
GIZ [1]: 34 mm | GIZ [2]: 33 mm | GIZ [3]: 30 mm | GIZ [4]: 29 mm | GIZ [5]: 28 mm | GIZ [6]: 34 mm | MIC ([7]; MRSA): 8 µg/mL (≈ 10.7 µM) | MIC ([8]; MRSA): 16 µg/mL (≈ 21.3 µM) | MIC ([9]; MRSA): 16 µg/mL (≈ 21.3 µM) | MIC ([10]; ATCC29213, 18 h): 4 µg/mL (≈ 5.33 µM) | MIC ([11]; ATCC4163, 18 h): 2 µg/mL (≈ 2.66 µM) | IC50 [12]: 0.47 ± 0.08 µM | SI LoVo [12]: 27.70 | MIC [13]: 25 µg/mL (≈ 33.3 µM) | MIC ([14]; MRSA): 16 µg/mL (≈ 21.3 µM)
